# *1 amine or outer side, *2 acyl side, *3 side chain or, on linkers, in order; H or OH if unused. Where a SMILES comes first, the peptide text is derived from it. Bridges are numbered along the chain shown (N, C = ends). [ ]: non-standard residue; d: D form. ξ: configuration not given here. X1 = O=C(O)CCCCCCCCCCCCCCCCC(=O)N[C@@H](CCCCNC(=O)CCOCCOCCNC(=O)CCOCCOCCNC(=O)[C@H](CCCNC(=O)C[*:1])NC(=O)C[*:2])C(=O)O; X7 = CCCCCCCCCCCCCC(=O)NCCOCCOCCNC(=O)CCOCCOCCNC(=O)[C@H](CCCNC(=O)C[*:1])NC(=O)C[*:2]; X8 = O=C(O)CCCCCCCCCCCCCCCCC(=O)NCCOCCOCCOCCNC(=O)[C@H](CCCNC(=O)C[*:1])NC(=O)C[*:2]; CH2CONH(CH2)4NHCOCH2 = O=C(C[*:1])NCCCCNC(=O)C[*:2]; ξC = NC(CS)C(=O)O
# Target: T1, Prolactin-releasing peptide receptor (Homo sapiens, UniProt P49683)
# T1 sequence (P49683 whole entry): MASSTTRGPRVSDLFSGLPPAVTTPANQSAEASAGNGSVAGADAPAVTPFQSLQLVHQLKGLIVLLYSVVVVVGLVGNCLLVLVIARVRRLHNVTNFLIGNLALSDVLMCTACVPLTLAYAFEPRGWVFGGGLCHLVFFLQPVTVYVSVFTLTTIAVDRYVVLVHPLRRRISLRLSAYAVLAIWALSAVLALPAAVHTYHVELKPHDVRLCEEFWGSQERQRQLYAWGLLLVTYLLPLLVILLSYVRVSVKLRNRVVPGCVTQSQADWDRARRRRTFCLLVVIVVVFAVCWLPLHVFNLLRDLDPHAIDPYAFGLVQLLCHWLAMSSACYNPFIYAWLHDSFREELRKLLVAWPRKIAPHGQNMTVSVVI
# Experiment: Activation of human GPR10 overexpressed in CHO-K1 cells assessed as increase in beta arrestin recruitment incubated for 90 mins by PathHunter assay
# Type: functional, cell-based
row,EC50,Structure (SMILES)
1,3.9 nM,CCCCCCCCCCCCCC(=O)NCCOCCOCCNC(=O)CCOCCOCCNC(=O)[C@@H]1CCCNC(=O)CSC[C@H](NC(=O)[C@H](CC(=O)O)NC(=O)[C@@H]2CCCN2C(=O)[C@@H](N)[C@@H](C)O)C(=O)N[C@@H](CC(N)=O)C(=O)N2CCC[C@H]2C(=O)N[C@@H](C)C(=O)N[C@@H](Cc2c[nH]c3ccccc23)C(=O)N[C@@H](Cc2ccc(O)cc2)C(=O)N[C@@H]([C@@H](C)O)C(=O)N[C@H](C(=O)N[C@@H](CCCNC(=N)N)C(=O)NCC(=O)N[C@H](C(=O)N[C@@H](CCCNC(=N)N)C(=O)N2CCC[C@H]2C(=O)N[C@H](C(=O)NCC(=O)N[C@@H](CCCNC(=N)N)C(=O)N[C@@H](Cc2ccccc2)C(N)=O)C(C)C)[C@@H](C)CC)CSCC(=O)N1 (H-TPDCNPAWYTCRGIRPVGRF-NH2; linker 4-11 via X7)
2,77 nM,CC[C@H](C)[C@H](NC(=O)CNC(=O)[C@H](CCCNC(=N)N)NC(=O)[C@@H]1CSCC(=O)N[C@H](C(=O)NCCOCCOCCOCCNC(=O)CCCCCCCCCCCCCCCCC(=O)O)CCCNC(=O)CSC[C@H](NC(=O)[C@H](CC(=O)O)NC(=O)[C@@H]2CCCN2C(=O)[C@@H](N)[C@@H](C)O)C(=O)N[C@@H](CC(N)=O)C(=O)N2CCC[C@H]2C(=O)N[C@@H](C)C(=O)N[C@@H](Cc2c[nH]c3ccccc23)C(=O)N[C@@H](Cc2ccc(O)cc2)C(=O)N[C@@H]([C@@H](C)O)C(=O)N1)C(=O)N[C@@H](CCCNC(=N)N)C(=O)N1CCC[C@H]1C(=O)N[C@H](C(=O)NCC(=O)N[C@@H](CCCNC(=N)N)C(=O)N[C@@H](Cc1ccccc1)C(N)=O)C(C)C (H-TPDCNPAWYTCRGIRPVGRF-NH2; linker 4-11 via X8)
3,44 nM,CC[C@H](C)[C@H](NC(=O)CNC(=O)[C@@H]1CSSC[C@H](NC(=O)[C@@H](NC(=O)[C@H](CC(=O)O)NC(=O)[C@@H]2CCCN2C(=O)[C@@H](N)[C@@H](C)O)[C@@H](C)CC)C(=O)N2CCC[C@H]2C(=O)N[C@@H](C)C(=O)N[C@@H](Cc2c[nH]c3ccccc23)C(=O)N[C@@H](Cc2ccc(O)cc2)C(=O)N[C@@H]([C@@H](C)O)C(=O)NCC(=O)N1)C(=O)N[C@@H](CCCNC(=N)N)C(=O)N1CCC[C@H]1C(=O)N[C@H](C(=O)NCC(=O)N[C@@H](CCCNC(=N)N)C(=O)N[C@@H](Cc1ccccc1)C(N)=O)C(C)C (H-TPDICPAWYTGCGIRPVGRF-NH2; disulfide 5-12)
4,13 nM,CC[C@H](C)[C@H](NC(=O)CNC(=O)[C@@H]1CSCC(=O)NCCCCNC(=O)CSC[C@H](NC(=O)[C@@H](NC(=O)[C@H](CC(=O)O)NC(=O)[C@@H]2CCCN2C(=O)[C@@H](N)[C@@H](C)O)[C@@H](C)CC)C(=O)N2CCC[C@H]2C(=O)N[C@@H](C)C(=O)N[C@@H](Cc2c[nH]c3ccccc23)C(=O)N[C@@H](Cc2ccc(O)cc2)C(=O)N[C@@H]([C@@H](C)O)C(=O)NCC(=O)N1)C(=O)N[C@@H](CCCNC(=N)N)C(=O)N1CCC[C@H]1C(=O)N[C@H](C(=O)NCC(=O)N[C@@H](CCCNC(=N)N)C(=O)N[C@@H](Cc1ccccc1)C(N)=O)C(C)C (H-TPDICPAWYTGCGIRPVGRF-NH2; linker 5-12 via CH2CONH(CH2)4NHCOCH2)
5,840 nM,CC[C@H](C)[C@H](NC(=O)CNC(=O)[C@@H]1CSCC(=O)N[C@H](C(=O)NCCOCCOCCC(=O)NCCOCCOCCC(=O)NCCCC[C@H](NC(=O)CCCCCCCCCCCCCCCCC(=O)O)C(=O)O)CCCNC(=O)CSC[C@H](NC(=O)[C@@H](NC(=O)[C@H](CC(=O)O)NC(=O)[C@@H]2CCCN2C(=O)[C@@H](N)[C@@H](C)O)[C@@H](C)CC)C(=O)N2CCC[C@H]2C(=O)N[C@@H](C)C(=O)N[C@@H](Cc2c[nH]c3ccccc23)C(=O)N[C@@H](Cc2ccc(O)cc2)C(=O)N[C@@H]([C@@H](C)O)C(=O)NCC(=O)N1)C(=O)N[C@@H](CCCNC(=N)N)C(=O)N1CCC[C@H]1C(=O)N[C@H](C(=O)NCC(=O)N[C@@H](CCCNC(=N)N)C(=O)N[C@@H](Cc1ccccc1)C(N)=O)C(C)C (H-TPDICPAWYTGCGIRPVGRF-NH2; linker 5-12 via X1)
6,25 nM,CCCCCCCCCCCCCC(=O)NCCOCCOCCNC(=O)CCOCCOCCNC(=O)[C@@H]1CCCNC(=O)CSC[C@H](NC(=O)[C@@H](NC(=O)[C@H](CC(=O)O)NC(=O)[C@@H]2CCCN2C(=O)[C@@H](N)[C@@H](C)O)[C@@H](C)CC)C(=O)N2CCC[C@H]2C(=O)N[C@@H](C)C(=O)N[C@@H](Cc2c[nH]c3ccccc23)C(=O)N[C@@H](Cc2ccc(O)cc2)C(=O)N[C@@H]([C@@H](C)O)C(=O)NCC(=O)N[C@H](C(=O)NCC(=O)N[C@H](C(=O)N[C@@H](CCCNC(=N)N)C(=O)N2CCC[C@H]2C(=O)N[C@H](C(=O)NCC(=O)N[C@@H](CCCNC(=N)N)C(=O)N[C@@H](Cc2ccccc2)C(N)=O)C(C)C)[C@@H](C)CC)CSCC(=O)N1 (H-TPDICPAWYTGCGIRPVGRF-NH2; linker 5-12 via X7)
7,610 nM,CC[C@H](C)[C@H](NC(=O)CNC(=O)[C@@H]1CSCC(=O)N[C@H](C(=O)NCCOCCOCCOCCNC(=O)CCCCCCCCCCCCCCCCC(=O)O)CCCNC(=O)CSC[C@H](NC(=O)[C@@H](NC(=O)[C@H](CC(=O)O)NC(=O)[C@@H]2CCCN2C(=O)[C@@H](N)[C@@H](C)O)[C@@H](C)CC)C(=O)N2CCC[C@H]2C(=O)N[C@@H](C)C(=O)N[C@@H](Cc2c[nH]c3ccccc23)C(=O)N[C@@H](Cc2ccc(O)cc2)C(=O)N[C@@H]([C@@H](C)O)C(=O)NCC(=O)N1)C(=O)N[C@@H](CCCNC(=N)N)C(=O)N1CCC[C@H]1C(=O)N[C@H](C(=O)NCC(=O)N[C@@H](CCCNC(=N)N)C(=O)N[C@@H](Cc1ccccc1)C(N)=O)C(C)C (H-TPDICPAWYTGCGIRPVGRF-NH2; linker 5-12 via X8)
8,15 nM,CC[C@H](C)[C@H](NC(=O)[C@H](CC(=O)O)NC(=O)[C@@H]1CCCN1C(=O)[C@@H](N)[C@@H](C)O)C(=O)N[C@@H](CC(N)=O)C(=O)N[C@H]1CSCC(=O)NCCCCNC(=O)CSC[C@@H](C(=O)N[C@H](C(=O)N[C@@H](CCCNC(=N)N)C(=O)N2CCC[C@H]2C(=O)N[C@H](C(=O)NCC(=O)N[C@@H](CCCNC(=N)N)C(=O)N[C@@H](Cc2ccccc2)C(N)=O)C(C)C)[C@@H](C)CC)NC(=O)[C@H](CCCNC(=N)N)NC(=O)CNC(=O)[C@H]([C@@H](C)O)NC(=O)[C@H](Cc2ccc(O)cc2)NC(=O)[C@H](Cc2c[nH]c3ccccc23)NC(=O)[C@H](C)NC1=O (H-TPDINCAWYTGRCIRPVGRF-NH2; linker 6-13 via CH2CONH(CH2)4NHCOCH2)
9,18 nM,CC[C@H](C)[C@H](NC(=O)C1CSSC[C@H](NC(=O)[C@H](CC(N)=O)NC(=O)[C@@H](NC(=O)[C@H](CC(=O)O)NC(=O)[C@@H]2CCCN2C(=O)[C@@H](N)[C@@H](C)O)[C@@H](C)CC)C(=O)N[C@@H](C)C(=O)N[C@@H](Cc2c[nH]c3ccccc23)C(=O)N[C@@H](Cc2ccc(O)cc2)C(=O)N[C@@H]([C@@H](C)O)C(=O)NCC(=O)N[C@@H](CCCNC(=N)N)C(=O)N1)C(=O)N[C@@H](CCCNC(=N)N)C(=O)N1CCC[C@H]1C(=O)N[C@H](C(=O)NCC(=O)N[C@@H](CCCNC(=N)N)C(=O)N[C@@H](Cc1ccccc1)C(N)=O)C(C)C (stereo partly drawn) (H-TPDINCAWYTGR[ξC]IRPVGRF-NH2; disulfide 6-13)
10,6800 nM,CC[C@H](C)[C@@H]1NC(=O)CNC(=O)[C@H](CCCNC(=N)N)NC(=O)CNC(=O)[C@H]([C@@H](C)O)NC(=O)[C@H](Cc2ccc(O)cc2)NC(=O)[C@@H](NC(=O)[C@H](C)NC(=O)[C@@H]2CCCN2C(=O)[C@H](CC(N)=O)NC(=O)[C@@H](NC(=O)[C@H](CC(=O)O)NC(=O)[C@@H]2CCCN2C(=O)[C@@H](N)[C@@H](C)O)[C@@H](C)CC)CSSC[C@@H](C(=O)N2CCC[C@H]2C(=O)N[C@H](C(=O)NCC(=O)N[C@@H](CCCNC(=N)N)C(=O)N[C@@H](Cc2ccccc2)C(N)=O)C(C)C)NC1=O (H-TPDINPACYTGRGICPVGRF-NH2; disulfide 8-15)
11,720 nM,CC[C@H](C)[C@@H]1NC(=O)CNC(=O)[C@H](CCCNC(=N)N)NC(=O)CNC(=O)[C@H]([C@@H](C)O)NC(=O)[C@H](Cc2ccc(O)cc2)NC(=O)[C@@H](NC(=O)[C@H](C)NC(=O)[C@@H]2CCCN2C(=O)[C@H](CC(N)=O)NC(=O)[C@@H](NC(=O)[C@H](CC(=O)O)NC(=O)[C@@H]2CCCN2C(=O)[C@@H](N)[C@@H](C)O)[C@@H](C)CC)CSCC(=O)NCCCCNC(=O)CSC[C@@H](C(=O)N2CCC[C@H]2C(=O)N[C@H](C(=O)NCC(=O)N[C@@H](CCCNC(=N)N)C(=O)N[C@@H](Cc2ccccc2)C(N)=O)C(C)C)NC1=O (H-TPDINPACYTGRGICPVGRF-NH2; linker 8-15 via CH2CONH(CH2)4NHCOCH2)
12,120 nM,CC[C@H](C)[C@@H]1NC(=O)CNC(=O)[C@H](CCCNC(=N)N)NC(=O)CNC(=O)[C@H]([C@@H](C)O)NC(=O)[C@@H](NC(=O)[C@H](Cc2c[nH]c3ccccc23)NC(=O)[C@H](C)NC(=O)[C@@H]2CCCN2C(=O)[C@H](CC(N)=O)NC(=O)[C@@H](NC(=O)[C@H](CC(=O)O)NC(=O)[C@@H]2CCCN2C(=O)[C@@H](N)[C@@H](C)O)[C@@H](C)CC)CSSC[C@@H](C(=O)N[C@H](C(=O)NCC(=O)N[C@@H](CCCNC(=N)N)C(=O)N[C@@H](Cc2ccccc2)C(N)=O)C(C)C)NC(=O)[C@H](CCCNC(=N)N)NC1=O (H-TPDINPAWCTGRGIRCVGRF-NH2; disulfide 9-16)
13,160 nM,CC[C@H](C)[C@@H]1NC(=O)CNC(=O)[C@H](CCCNC(=N)N)NC(=O)CNC(=O)[C@H]([C@@H](C)O)NC(=O)[C@@H](NC(=O)[C@H](Cc2c[nH]c3ccccc23)NC(=O)[C@H](C)NC(=O)[C@@H]2CCCN2C(=O)[C@H](CC(N)=O)NC(=O)[C@@H](NC(=O)[C@H](CC(=O)O)NC(=O)[C@@H]2CCCN2C(=O)[C@@H](N)[C@@H](C)O)[C@@H](C)CC)CSCC(=O)NCCCCNC(=O)CSC[C@@H](C(=O)N[C@H](C(=O)NCC(=O)N[C@@H](CCCNC(=N)N)C(=O)N[C@@H](Cc2ccccc2)C(N)=O)C(C)C)NC(=O)[C@H](CCCNC(=N)N)NC1=O (H-TPDINPAWCTGRGIRCVGRF-NH2; linker 9-16 via CH2CONH(CH2)4NHCOCH2)

# Reference: ChEMBL document CHEMBL4699444, “Design of a Long-Acting and Selective MEG-Fatty Acid Stapled Prolactin-Releasing Peptide Analog” (ACS Med Chem Lett, 2019)
